Measured values from article PMC4059246 (Journal of Medicinal Chemistry, 2014).
Read-outs that look alike come from different tables or passages of the source.

Columns and labels:
[1] = tested on: RPA194; experiment: Western blotting for RPA194 in U2OS cell lysates; assay type: cell-based
[2] = tested on: U2OS cells; experiment: Cell viability, WST-1 assay; details: U2OS cells, 0, 0.5, 5 μM, 48 h, WST-1 (Figure 5)
[3] = tested on: RPA194; details: for Effect on expression of RPA194: U2OS cells, 0.5 μM, 3 h, representative images (Figure 2A)
[4] = tested on: NCL; details: U2OS cells, 0.5 μM, 3 h (Figure 2B)
[5] = Human liver microsomal stability assay; details: for In vitro stability compared with compound 2: human liver microsomes
[6] = tested on: NCI60 cancer cell lines; details: cited from earlier work
[7] = after 25 mg/kg ip dose; cited from earlier work
[8] = tested on: NCL; experiment: Western blotting for NCL in U2OS cell lysates; details: U2OS cells, 0, 0.1, 1, 10 μM, 3 h (Figure 4)
[9] = tested on: tumor burden; details: mouse xenograft assays; cited from earlier work
[10] = U2OS cells, 0, 0.1, 1, 10 μM, 3 h (Figure 4)
[11] = RPA194 and NCL assays in U2OS cells

Row | SMILES | Degradation of RPA194 by Western blotting [1, 10] | Effect on cell viability [2] | Effect on nucleolar localization of NCL [4] | further results
1 | CN(C)CCNC(=O)c1cccn2c(=O)c3ccccc3nc12 [Compound 15, N-[2-(Dimethylamino)ethyl]-11-oxopyrido[2,1-b]quinazoline-6-carboxamide] | less potent | little or no activity |  | Decrease in potency relative to compound 2 [3]: over 40 fold; Effect on expression of RPA194 [3]: no effect
2 | CC(CN(C)C)NC(=O)c1cccn2c(=O)c3cc4ccccc4cc3nc12 (centres unmarked) [Compound 11, N-[2-(Dimethylamino)-1-methylethyl]-12-oxo-12H-benzo[g]pyrido[2,1-b]quinazoline-4-carboxamide] | caused degradation of RPA194 |  | decreased the nucleolar localization of NCL | 
3 | CN(C)[C@H]1CCN(C(=O)c2cccn3c(=O)c4cc5ccccc5cc4nc23)C1 [Compound 33, 4-[(3S)-3-(Dimethylamino)pyrrolidine-1-carbonyl]-12H-benzo[g]pyrido[2,1-b]quinazoline-12-one] |  |  |  | Biological activity (in words) [3, 11]: inactive
4 | O=C(NCCN1CCOCC1)c1cccn2c(=O)c3cc4ccccc4cc3nc12 [Compound 36, N-(2-Morpholinoethyl)-12-oxo-12H-benzo[g]pyrido[2,1-b]quinazoline-4-carboxamide] | less potent | little or no activity |  | 
5 | CC(C)N1CCN(C(=O)c2cccn3c(=O)c4cc5ccccc5cc4nc23)CC1 [Compound 31, 4-(4-Isopropylpiperazine-1-carbonyl)-12H-benzo[g]pyrido[2,1-b]quinazoline-12-one] |  |  |  | Biological activity (in words) [3]: inactive
6 | CN(C)CCOC(=O)c1cccn2c(=O)c3cc4ccccc4cc3nc12 [Compound 17, 2-(Dimethylamino)ethyl 12-Oxo-12H-benzo[g]pyrido[2,1-b]quinazoline-4-carboxylate] |  |  |  | Biological activity (in words) [3, 11]: significant loss in potency
7 | CCN(CC)CCNC(=O)c1cccn2c(=O)c3ccccc3nc12 [Compound 16, N-[2-(Diethylamino)ethyl]-11-oxopyrido[2,1-b]quinazoline-6-carboxamide] |  |  |  | Decrease in potency relative to compound 2 ([3]; RPA194/NCL assays in U2OS cells, versus compound 2): over 40 fold
8 | CCN(CC)CCNC(=O)c1cccn2c(=O)c3cc4ccccc4cc3nc12 [Compound 10, N-[2-(Diethylamino)ethyl]-12-oxo-12H-benzo[g]pyrido[2,1-b]quinazoline-4-carboxamide] |  |  | decreased the nucleolar localization of NCL | In vitro stability compared with compound 2 [5]: did not improve stability
9 | CN(C)CCN(C)C(=O)c1cccn2c(=O)c3cc4ccccc4cc3nc12 [Compound 18, N-[2-(Dimethylamino)ethyl]-N-methyl-12-oxo-12H-benzo[g]pyrido[2,1-b]quinazoline-4-carboxamide] |  | little or no activity |  | Degradation of RPA194 by Western blotting [1]: inactive
10 | CN(C)CCNC(=O)c1cccn2c(=O)c3cc4ccccc4cc3nc12 [Compound 2, N-[2-(Dimethylamino)ethyl]-12-oxo-12H-benzo[g]pyrido[2,1-b]quinazoline-4-carboxamide] | caused degradation of RPA194 | profound loss of cell viability |  | Anticancer activity [6]: broad and potent anticancer activity; half-life [7]: 2.5 h; Expression of NCL by Western blotting [8]: largely unaffected except at very high (10 μM) concentrations; Major metabolites ([5]; identification of the major metabolites, method not described): N-dealkylation as one of several major metabolites; Tumor burden [9]: reduced tumor burden
11 | CCN(CC)C1CCN(C(=O)c2cccn3c(=O)c4cc5ccccc5cc4nc23)C1 (centres unmarked) [Compound 34, 4-[3-(Diethylamino)pyrrolidine-1-carbonyl]-12H-benzo[g]pyrido[2,1-b]quinazoline-12-one] |  |  |  | Biological activity (in words) [3, 11]: inactive
12 | O=C(NCCN1CCCC1)c1cccn2c(=O)c3cc4ccccc4cc3nc12 [Compound 9, 12-Oxo-N-(2-pyrrolidin-1-ylethyl)-12H-benzo[g]pyrido[2,1-b]quinazoline-4-carboxamide] |  | profound loss of cell viability | decreased the nucleolar localization of NCL | Effect on expression of RPA194 [3]: almost complete loss of expression of RPA194; In vitro stability compared with compound 2 [5]: did not improve stability
13 | O=C(NC1CNC1)c1cccn2c(=O)c3cc4ccccc4cc3nc12 [Compound 12, N-(Azetidin-3-yl)-12-oxo-12H-benzo[g]pyrido[2,1-b]quinazoline-4-carboxamide] |  |  | decreased the nucleolar localization of NCL | 
14 | CC(CNC(=O)c1cccn2c(=O)c3cc4ccccc4cc3nc12)N(C)C (centres unmarked) [Compound 13, N-[2-(Dimethylamino)propyl]-12-oxo-12H-benzo[g]pyrido[2,1-b]quinazoline-4-carboxamide] |  | profound loss of cell viability | decreased the nucleolar localization of NCL | Effect on expression of RPA194 [3]: almost complete loss of expression of RPA194
15 | O=C(NCCN1CCCCC1)c1cccn2c(=O)c3cc4ccccc4cc3nc12 [Compound 8, 12-Oxo-N-[2-(1-piperidyl)ethyl]-12H-benzo[g]pyrido[2,1-b]quinazoline-4-carboxamide] | caused degradation of RPA194 | profound loss of cell viability | decreased the nucleolar localization of NCL | In vitro stability compared with compound 2 [5]: did not improve stability
16 | CN(C)CCCCNC(=O)c1cccn2c(=O)c3cc4ccccc4cc3nc12 [Compound 14, N-[4-(Dimethylamino)butyl]-12-oxo-12H-benzo[g]pyrido[2,1-b]quinazoline-4-carboxamide] | less potent | little or no activity |  | 
